From ChEMBL document CHEMBL1152756, “Photodynamic effects of novel 5,15-diaryl-tetrapyrrole derivatives on human colon carcinoma cells” (Bioorg Med Chem, 2009)
pIC50: −log10 of the molar value. ≈ marks a conversion by molar mass, not a printed value. Calls of active or inactive are those of the source. The calls are words filed in the database; no cut-off is given here.

Legend:
HCT-116 [1] = experiment: Phototoxicity against human HCT116 cells […] after 24 hrs irradiated with LED red light for 2 hrs followed by incubation in drug free medium for 24 hrs by MTT assay; type: functional, cell-based; conditions: HCT-116, light or radiation study
HCT-116 [2] = experiment: Cell cycle arrest in human HCT116 cells assessed as accumulation at S phase at IC50 after 24 hrs irradiated with tungsten-halogen white light for 2 hrs followed by incubation in drug free medium for 24 hrs by flow cytometry; type: functional
HCT-116 [3] = experiment: Induction of apoptosis in human HCT116 cells at IC50 after 24 hrs irradiated with tungsten-halogen white light for 2 hrs followed by incubation in drug free medium for 24 hrs using annexin V-FITC staining by FACS; type: functional, cell-based
HCT-116 [4] = experiment: Induction of apoptosis in human HCT116 cells assessed as decrease in survivin protein expression at IC50 after 24 hrs irradiated with tungsten-halogen white light for 2 hrs followed by incubation in drug free medium for 24 hrs […]; type: functional, cell-based
HCT-116 [5] = experiment: Cell cycle arrest in human HCT116 cells assessed as accumulation at G1 phase at IC50 after 24 hrs irradiated with tungsten-halogen white light for 2 hrs followed by incubation in drug free medium for 24 hrs by flow cytometry; type: functional
HCT-116 [6] = experiment: Cell cycle arrest in human HCT116 cells assessed as accumulation at G2/M phase at IC50 after 24 hrs irradiated with tungsten-halogen white light for 2 hrs followed by incubation in drug free medium for 24 hrs by flow cytometry; type: functional
HCT-116 [7] = experiment: Induction of apoptosis in human HCT116 cells assessed as increase in Bax protein expression at IC50 after 24 hrs irradiated with tungsten-halogen white light for 2 hrs followed by incubation in drug free medium for 24 hrs […]; type: functional, cell-based
HCT-116 [8] = experiment: Induction of apoptosis in human HCT116 cells assessed as decrease in Bcl2 protein expression at IC50 after 24 hrs irradiated with tungsten-halogen white light for 2 hrs followed by incubation in drug free medium for 24 hrs […]; type: functional, cell-based
HCT-116 [9] = experiment: Phototoxicity against human HCT116 cells […] after 24 hrs irradiated with tungsten-halogen white light for 2 hrs followed by incubation in drug free medium for 24 hrs by MTT assay in presence of nitric oxide synthase inhibitor L-NMMA; type: functional, cell-based; conditions: HCT-116, light or radiation study
HCT-116 [10] = experiment: Phototoxicity against human HCT116 cells […] after 24 hrs irradiated with tungsten-halogen white light for 2 hrs followed by incubation in drug free medium for 24 hrs by MTT assay; type: functional, cell-based; conditions: HCT-116, light or radiation study
HCT-116 [11] = experiment: Induction of NO radical generation in human HCT116 cells at IC50 after 24 hrs irradiated with tungsten-halogen white light for 2 hrs followed by incubation in drug free medium for 24 hrs; type: functional, cell-based
HCT-116 [12] = experiment: Induction of ROS generation in human HCT116 cells at IC50 after 24 hrs irradiated with tungsten-halogen white light for 2 hrs followed by incubation in drug free medium for 24 hrs by flow cytometry; type: functional, cell-based

Oc1cccc(-c2c3nc(c(-c4cccc(O)c4)c4ccc([nH]4)c(-c4cccc(O)c4)c4nc(c(-c5cccc(O)c5)c5ccc2[nH]5)CC4)C=C3)c1 [TEMOPORFIN]
pIC50 (HCT-116 [1]): 7.39
Activity (HCT-116 [2]): 21.29%
Activity (HCT-116 [3]): Active
Activity (HCT-116 [4]): Active
Activity (HCT-116 [5]): 51.53%
Activity (HCT-116 [6]): 27.17%
Activity (HCT-116 [7]): Active
Activity (HCT-116 [8]): Active

C1=Cc2nc1cc1ccc([nH]1)c(-c1ccccc1)c1nc(cc3ccc([nH]3)c2-c2ccccc2)C=C1
Activity (HCT-116 [2]): 17.89%
Activity (HCT-116 [3]): Active
Activity (HCT-116 [4]): Active
Activity (HCT-116 [5]): 52.83%
Activity (HCT-116 [6]): 29.27%
Activity (HCT-116 [7]): Active
Activity (HCT-116 [8]): Active

Oc1cccc(-c2c3nc(cc4ccc([nH]4)c(-c4ccccc4)c4nc(cc5ccc2[nH]5)C=C4)CC3)c1
pIC50 (HCT-116 [1]): 8.88

COc1cccc(-c2c3nc(cc4ccc([nH]4)c(-c4ccccc4)c4nc(cc5ccc2[nH]5)C=C4)C=C3)c1
Activity (HCT-116 [2]): 17.93%
Activity (HCT-116 [3]): Active
Activity (HCT-116 [4]): Active
Activity (HCT-116 [5]): 52.4%
Activity (HCT-116 [6]): 29.6%
Activity (HCT-116 [7]): Active
Activity (HCT-116 [8]): Active

Oc1cccc(-c2c3nc(cc4ccc([nH]4)c(-c4ccccc4)c4nc(cc5ccc2[nH]5)C=C4)C=C3)c1
IC50 (HCT-116 [9]): 0.482 ng/mL
pIC50 (HCT-116 [1]): 8.40
IC50 (HCT-116 [10]): 0.683 ng/mL (≈ 1.43 nM)
Activity (HCT-116 [2]): 21.28%
Activity (HCT-116 [3]): Active
Activity (HCT-116 [4]): Active
Activity (HCT-116 [11]): Active
Activity (HCT-116 [5]): 49.03%
Activity (HCT-116 [6]): 29.69%
Activity (HCT-116 [7]): Active
Activity (HCT-116 [12]): Active
Activity (HCT-116 [8]): Active
